In experiment [1] the target is T1, FAK (Homo sapiens, UniProt Q05397).
T1 construct: gene PTK2
The experiment is described as follows: HTRF kinase assay, % inhibition at […]. Format: biochemical. In general terms: TR-FRET usually uses a lanthanide donor and a delayed reading to cut background.

In experiment [2] the target is T1, FAK. The experiment can be described thus: biochemical. Details: HTRF KinEASE-TK kinase assay with purified FAK, inhibition of substrate phosphorylation. The note with it: for inhibition at 0.5 µM: read-out: FAK inhibition (%)^a / 0.5 μM; for inhibition at 0.1 µM: read-out: FAK inhibition (%)^a / 0.1 μM. How it is done:
The FAK kinase assay was performed using the HTRF® KinEASE™-TK kit (Cisbio Bioassays, France) in white 384-well small volume plates with a total working volume of 20 μL. Purified FAK enzyme was purchased from Carna Biosciences (Japan). Compounds were diluted step-by-step from a concentrated stock of 8 mM in 100% DMSO and with serial kinase reaction buffer dilutions. The IC50 measurements were performed in replicates. […] The assay plates were incubated at 30 °C for 50 min and reactions were terminated by adding 10 μL of mix 2 (Sa-XL665 + TK-Antibody-Cryptate). After a final incubation (60 min at room temperature), HTRF signals were obtained by reading plates using an Infinite® F500 microplate reader (Tecan, Switzerland). […] For IC50 measurements, values were normalised and fitted with Graphpad prism 8.3.0.

Experiment [3] has as its target T1, FAK. The experiment can be described thus: HTRF KinEASE-TK kinase assay, purified FAK (Carna).

T1 sequence (Q05397 2-1052): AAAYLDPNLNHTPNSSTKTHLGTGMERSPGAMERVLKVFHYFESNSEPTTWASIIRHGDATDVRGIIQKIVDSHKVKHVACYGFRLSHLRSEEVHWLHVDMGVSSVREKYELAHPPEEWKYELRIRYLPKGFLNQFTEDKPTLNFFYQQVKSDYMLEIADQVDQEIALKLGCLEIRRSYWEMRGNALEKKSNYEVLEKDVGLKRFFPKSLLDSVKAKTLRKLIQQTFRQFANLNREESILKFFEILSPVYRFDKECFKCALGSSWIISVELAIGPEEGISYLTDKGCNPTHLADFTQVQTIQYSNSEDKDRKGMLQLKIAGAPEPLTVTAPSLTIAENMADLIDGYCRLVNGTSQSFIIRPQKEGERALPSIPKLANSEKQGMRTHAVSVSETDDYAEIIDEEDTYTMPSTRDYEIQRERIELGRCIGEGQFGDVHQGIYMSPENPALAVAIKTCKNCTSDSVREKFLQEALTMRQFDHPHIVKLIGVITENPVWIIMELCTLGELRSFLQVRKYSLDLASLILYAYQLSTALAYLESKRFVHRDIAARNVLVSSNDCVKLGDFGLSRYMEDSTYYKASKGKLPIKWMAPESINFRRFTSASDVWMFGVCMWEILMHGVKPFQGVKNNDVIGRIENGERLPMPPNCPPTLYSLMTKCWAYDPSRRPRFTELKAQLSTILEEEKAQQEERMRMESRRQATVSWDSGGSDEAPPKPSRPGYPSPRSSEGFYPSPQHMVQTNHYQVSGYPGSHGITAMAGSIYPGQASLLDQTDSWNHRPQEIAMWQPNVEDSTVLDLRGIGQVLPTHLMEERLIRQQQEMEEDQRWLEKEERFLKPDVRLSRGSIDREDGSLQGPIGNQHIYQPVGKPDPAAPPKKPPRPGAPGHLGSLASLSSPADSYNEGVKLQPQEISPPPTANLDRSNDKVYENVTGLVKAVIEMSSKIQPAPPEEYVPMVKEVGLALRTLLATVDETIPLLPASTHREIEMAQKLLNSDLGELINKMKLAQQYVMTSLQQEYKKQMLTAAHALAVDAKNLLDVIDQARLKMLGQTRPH

Compound `CN(c1ccccc1CNc1nc(Nc2ccc(N3CCN(CCCCCC(=O)NCCNc4cccc5c4C(=O)N(C4CCC(=O)NC4=O)C5=O)CC3)cc2)ncc1C(F)(F)F)S(C)(=O)=O` (stereo not shown) [A12, N-(2-{[2–(2,6-Dioxopiperidin-3-yl)-1,3-dioxoisoindolin-4-yl]amino}ethyl)-6–(4-{4-[(4-{[2-(N-methylmethylsulfonamido)benzyl]amino}-5-(trifluoromethyl)pyrimidin-2-yl)amino]phenyl}piperazine-1-yl)hexanamide] showed an inhibition at 0.1 µM in experiment [1] of 86.1%. For the same compound, in experiment [2], the inhibition at 0.5 µM amounted to 98%.
On the same counts, the results for `CN(c1ccccc1CNc1nc(Nc2ccc(N3CCN(CCCCC(=O)Nc4cccc5c4C(=O)N(C4CCC(=O)NC4=O)C5=O)CC3)cc2)ncc1C(F)(F)F)S(C)(=O)=O` (stereo not shown) [A5] are 91.2% and 98%.
`CN(c1ccccc1CNc1nc(Nc2ccc(N3CCN(CCCCC(=O)NCCNc4cccc5c4C(=O)N(C4CCC(=O)NC4=O)C5=O)CC3)cc2)ncc1C(F)(F)F)S(C)(=O)=O` (stereo not shown) [A11, N-(2-{[2–(2,6-Dioxopiperidin-3-yl)-1,3-dioxoisoindolin-4-yl]amino}ethyl)-5–(4 –{4-[(4-{[2-(N-Methylmethylsulfonamido)benzyl]amino}-5-(trifluoromethyl)pyrimidin-2-yl)amino]phenyl}piperazine-1-yl)pentanamide]: the inhibition at 0.1 µM in experiment [1] was determined as 93.5%. For the same compound, the inhibition at 0.5 µM in experiment [2] was 98.6%.
`CN(c1ccccc1CNc1nc(Nc2ccc(N3CCN(CCCCCC(=O)Nc4cccc5c4C(=O)N(C4CCC(=O)NC4=O)C5=O)CC3)cc2)ncc1C(F)(F)F)S(C)(=O)=O` (stereo not shown) [A6, N-(2–(2,6-Dioxopiperidin-3-yl)-1,3-dioxoisoindol-4-yl)-6–(4-{4-[(4-{[2-(N-Methylmethylsulfonamido)benzyl]amino}-5-(trifluoromethyl)pyrimidin-2-yl)amino]phenyl}piperazin-1-yl)hexanamide] gave an IC50 in experiment [3] of 24.4 nM. In experiment [2], the inhibition at 0.1 µM came out at 88.2% and the inhibition at 0.5 µM stood at 96.8%.
Take `CN(c1ccccc1CNc1nc(Nc2ccc(N3CCN(CCOCCOCCNC(=O)CNc4cccc5c4C(=O)N(C4CCC(=O)NC4=O)C5=O)CC3)cc2)ncc1C(F)(F)F)S(C)(=O)=O` (stereo not shown) [A1, 2-{[2–(2,6-Dioxopiperidin-3-yl)-1,3-dioxoisoindolin-4-yl]amino}-N-(2-{2-[2–(4-{4-[(4-{[2-(N-methylmethylsulfonamido)benzyl]amino}-5-(trifluoromethyl)pyrimidin-2-yl)amino]phenyl}piperazin-1-yl)ethoxy]ethoxy}ethyl)acetamide]: the IC50 in experiment [3] was 22.3 nM. For the same compound, in experiment [2], the inhibition at 0.1 µM was 94.9% and the inhibition at 0.5 µM turned out to be 98%.
Regarding `CN(c1ccccc1CNc1nc(Nc2ccc(N3CCN(CCCOCCC(=O)NCCNc4cccc5c4C(=O)N(C4CCC(=O)NC4=O)C5=O)CC3)cc2)ncc1C(F)(F)F)S(C)(=O)=O` (stereo not shown) [A2, N-(2-{[2–(2,6-dioxopiperidin-3-yl)-1,3-dioxoisoindolin-4-yl]amino}ethyl)-3-[3–(4-{4-[(4-{[2-(N-methylmethylsulfonamido)benzyl]amino}-5-(trifluoromethyl)pyrimidin-2-yl)amino]phenyl}piperazin-1-yl)propoxy]propanamide], the inhibition at 0.1 µM in experiment [1] was 89%. The inhibition at 0.5 µM in experiment [2] was determined as 98.8%.
`CN(c1ccccc1CNc1nc(Nc2ccc(N3CCN(CCCCCCC(=O)NCCNc4cccc5c4C(=O)N(C4CCC(=O)NC4=O)C5=O)CC3)cc2)ncc1C(F)(F)F)S(C)(=O)=O` (stereo not shown) [A13, N-(2-{[2–(2,6-Dioxopiperidin-3-yl)-1,3-dioxoisoindolin-4-yl]amino}ethyl)-7–(4 -{4-[(4-{[2-(N-methylmethylsulfonamido)benzyl]amino}-5-(trifluoromethyl)pyrimidin-2-yl)amino]phenyl}piperazine-1-yl)heptamide] came in with an IC50 in experiment [3] of 26.4 nM. Further, in experiment [2], the inhibition at 0.1 µM is 84.4% and the inhibition at 0.5 µM worked out at 96.9%.
Turning to `CN(c1ccccc1CNc1nc(Nc2ccc(N3CCN(CCCCCCC(=O)Nc4cccc5c4C(=O)N(C4CCC(=O)NC4=O)C5=O)CC3)cc2)ncc1C(F)(F)F)S(C)(=O)=O` (stereo not shown) [A7, N-[2–(2,6-Dioxopiperidin-3-yl)-1,3-dioxoisoindol-4-yl]-7–(4-{4-[(4-{[2-(N-Methylmethylsulfonamido)benzyl]amino}-5-(trifluoromethyl)pyrimidin-2-yl)amino]phenyl}piperazin-1-yl)heptamide], in experiment [1], the inhibition at 0.1 µM turned out to be 87.5%. Also, in experiment [2], the inhibition at 0.5 µM was 95.4%.

The term IC50 denotes the concentration that inhibits the measured activity by half. Higher therefore signals weaker potency in that assay.

These data come from article PMC9455338, “Design, synthesis, and biological evaluation of potent FAK-degrading PROTACs” (Journal of Enzyme Inhibition and Medicinal Chemistry, 2022).
